# In US12479847B2 (DANA-FARBER CANCER INSTITUTE, INC., priority 2019, dated 2025):
# Where two headings read alike, the source gives them in different places.
# Columns and labels:
# Assay in all cases: KINOMEscan (ScanMAX) kinase profiling
# Assay type in all cases: binding
# [1] = molecular target: T1, panel of 468 kinases (Homo sapiens, UniProt Q9BX84); settings: TRPM6; 1 μM; read-out: % control
# T1 construct: purchased KINOMEscan (ScanMAX) service
# [2] = molecular target: T2, panel of 468 kinases (Homo sapiens, UniProt P11362); settings: FGFR1; 1 μM; read-out: % control
# T2 construct: purchased KINOMEscan (ScanMAX) service
# [3] = molecular target: T3, panel of 468 kinases (Homo sapiens, UniProt Q9UM73, C1156Y); settings: ALK(C1156Y); 1 μM; read-out: % control
# T3 construct: purchased KINOMEscan (ScanMAX) service
# [4] = molecular target: T4, panel of 468 kinases (Homo sapiens, UniProt P00519); settings: 1 μM, read-out: % control
# T4 construct: purchased KINOMEscan (ScanMAX) service
# [5] = molecular target: T5, panel of 468 kinases (Homo sapiens, UniProt Q13523); settings: PRP4; 1 μM; read-out: % control
# T5 construct: purchased KINOMEscan (ScanMAX) service
# [6] = molecular target: T6, panel of 468 kinases (Homo sapiens, UniProt Q5VT25); settings: MRCKA; 1 μM; read-out: % control
# T6 construct: purchased KINOMEscan (ScanMAX) service
# [7] = molecular target: T7, panel of 468 kinases (Homo sapiens, UniProt P04049); settings: RAF1; 1 μM; read-out: % control
# T7 construct: purchased KINOMEscan (ScanMAX) service
# [8] = molecular target: T8, panel of 468 kinases (Homo sapiens, UniProt Q9H3Y6); settings: SRMS; 1 μM; read-out: % control
# T8 construct: purchased KINOMEscan (ScanMAX) service
# [9] = molecular target: T9, panel of 468 kinases (Homo sapiens, UniProt O15264); settings: p38-delta; 1 μM; read-out: % control
# T9 construct: purchased KINOMEscan (ScanMAX) service
# T9 sequence (O15264 1-365): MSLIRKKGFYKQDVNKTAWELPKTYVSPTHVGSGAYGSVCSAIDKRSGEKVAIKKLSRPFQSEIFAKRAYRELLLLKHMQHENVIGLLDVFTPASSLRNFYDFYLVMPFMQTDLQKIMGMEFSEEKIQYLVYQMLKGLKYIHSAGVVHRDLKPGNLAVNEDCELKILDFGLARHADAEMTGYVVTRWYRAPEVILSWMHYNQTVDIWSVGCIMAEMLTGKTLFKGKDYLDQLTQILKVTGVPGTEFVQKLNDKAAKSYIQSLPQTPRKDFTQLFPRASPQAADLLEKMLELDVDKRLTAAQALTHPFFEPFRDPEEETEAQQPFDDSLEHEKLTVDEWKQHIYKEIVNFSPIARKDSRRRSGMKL
# [10] = molecular target: T10, panel of 468 kinases (Homo sapiens, UniProt P06241); settings: FYN; 1 μM; read-out: % control
# T10 construct: purchased KINOMEscan (ScanMAX) service
# [11] = molecular target: T11, panel of 468 kinases (Homo sapiens, UniProt Q9UHD2); settings: TBK1; 1 μM; read-out: % control
# T11 construct: purchased KINOMEscan (ScanMAX) service
# T11 sequence (Q9UHD2 1-729): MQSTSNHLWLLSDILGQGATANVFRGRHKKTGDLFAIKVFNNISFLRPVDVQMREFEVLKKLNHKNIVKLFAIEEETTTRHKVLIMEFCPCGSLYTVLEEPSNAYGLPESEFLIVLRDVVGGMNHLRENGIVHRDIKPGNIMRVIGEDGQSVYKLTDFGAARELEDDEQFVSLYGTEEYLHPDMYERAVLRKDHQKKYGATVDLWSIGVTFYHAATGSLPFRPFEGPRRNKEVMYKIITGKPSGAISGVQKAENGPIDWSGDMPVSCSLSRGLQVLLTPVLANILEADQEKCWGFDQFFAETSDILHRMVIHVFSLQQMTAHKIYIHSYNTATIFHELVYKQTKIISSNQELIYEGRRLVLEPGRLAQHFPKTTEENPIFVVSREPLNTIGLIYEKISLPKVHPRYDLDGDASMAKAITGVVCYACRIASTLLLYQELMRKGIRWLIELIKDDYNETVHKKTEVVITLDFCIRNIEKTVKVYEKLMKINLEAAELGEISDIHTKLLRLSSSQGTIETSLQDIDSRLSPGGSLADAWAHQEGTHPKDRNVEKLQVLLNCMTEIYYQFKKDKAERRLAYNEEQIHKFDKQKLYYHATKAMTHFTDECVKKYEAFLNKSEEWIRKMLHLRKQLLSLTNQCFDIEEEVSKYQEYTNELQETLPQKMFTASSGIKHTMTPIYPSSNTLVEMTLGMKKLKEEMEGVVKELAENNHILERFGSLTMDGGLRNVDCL
# [12] = molecular target: T12, panel of 468 kinases (Homo sapiens, UniProt P00519, Q252H); settings: 1 μM, read-out: % control
# T12 construct: purchased KINOMEscan (ScanMAX) service
# [13] = molecular target: T13, panel of 468 kinases (Homo sapiens, UniProt P19784); settings: CSNK2A2; 1 μM; read-out: % control
# T13 construct: purchased KINOMEscan (ScanMAX) service
# [14] = molecular target: T14, panel of 468 kinases (Homo sapiens, UniProt O75582); settings: 1 μM, read-out: % control
# T14 construct: purchased KINOMEscan (ScanMAX) service
# T14 sequence (O75582 whole entry): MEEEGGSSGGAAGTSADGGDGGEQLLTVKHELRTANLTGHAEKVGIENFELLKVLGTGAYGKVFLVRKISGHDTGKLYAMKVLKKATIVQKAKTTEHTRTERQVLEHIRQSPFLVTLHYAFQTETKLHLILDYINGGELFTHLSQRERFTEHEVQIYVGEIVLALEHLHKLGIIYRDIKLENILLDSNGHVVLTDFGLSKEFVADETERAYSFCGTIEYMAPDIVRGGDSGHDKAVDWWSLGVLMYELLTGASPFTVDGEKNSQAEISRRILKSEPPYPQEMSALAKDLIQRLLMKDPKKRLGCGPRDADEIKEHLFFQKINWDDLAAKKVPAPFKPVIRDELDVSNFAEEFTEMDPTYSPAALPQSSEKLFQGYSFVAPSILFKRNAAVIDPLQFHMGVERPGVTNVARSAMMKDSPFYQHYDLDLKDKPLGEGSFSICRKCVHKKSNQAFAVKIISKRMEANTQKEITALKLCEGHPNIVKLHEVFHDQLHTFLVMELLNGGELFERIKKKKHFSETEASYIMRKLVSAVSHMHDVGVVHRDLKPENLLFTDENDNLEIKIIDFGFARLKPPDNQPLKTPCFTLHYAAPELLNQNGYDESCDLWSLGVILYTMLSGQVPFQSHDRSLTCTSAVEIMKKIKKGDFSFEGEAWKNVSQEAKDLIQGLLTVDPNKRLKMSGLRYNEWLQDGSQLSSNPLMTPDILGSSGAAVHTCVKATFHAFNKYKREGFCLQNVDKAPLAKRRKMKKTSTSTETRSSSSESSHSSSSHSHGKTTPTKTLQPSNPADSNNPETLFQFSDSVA
# T13 sequence (P19784 whole entry): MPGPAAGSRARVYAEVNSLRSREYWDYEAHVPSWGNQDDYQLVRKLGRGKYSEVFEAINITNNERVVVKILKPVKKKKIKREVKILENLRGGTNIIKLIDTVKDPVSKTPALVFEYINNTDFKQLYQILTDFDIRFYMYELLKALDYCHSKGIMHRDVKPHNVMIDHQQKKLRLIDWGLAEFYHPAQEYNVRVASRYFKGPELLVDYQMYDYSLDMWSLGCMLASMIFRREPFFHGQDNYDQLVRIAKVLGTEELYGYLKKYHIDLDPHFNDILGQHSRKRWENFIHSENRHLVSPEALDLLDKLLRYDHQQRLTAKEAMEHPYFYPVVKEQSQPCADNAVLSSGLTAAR
# T10 sequence (P06241 whole entry): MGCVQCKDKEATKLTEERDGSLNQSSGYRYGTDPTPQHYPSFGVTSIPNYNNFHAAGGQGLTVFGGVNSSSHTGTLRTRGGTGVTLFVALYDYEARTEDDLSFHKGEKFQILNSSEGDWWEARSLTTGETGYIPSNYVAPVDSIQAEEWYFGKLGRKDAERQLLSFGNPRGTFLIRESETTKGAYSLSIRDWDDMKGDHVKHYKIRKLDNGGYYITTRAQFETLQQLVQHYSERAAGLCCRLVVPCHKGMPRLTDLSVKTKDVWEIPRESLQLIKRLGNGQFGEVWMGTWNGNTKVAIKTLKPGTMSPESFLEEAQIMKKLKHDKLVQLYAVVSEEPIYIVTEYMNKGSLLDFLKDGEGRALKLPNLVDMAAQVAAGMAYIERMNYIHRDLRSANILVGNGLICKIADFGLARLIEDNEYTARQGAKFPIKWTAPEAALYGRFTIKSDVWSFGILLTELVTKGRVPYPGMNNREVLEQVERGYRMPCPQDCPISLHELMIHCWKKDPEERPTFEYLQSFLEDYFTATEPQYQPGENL
# T7 sequence (P04049 whole entry): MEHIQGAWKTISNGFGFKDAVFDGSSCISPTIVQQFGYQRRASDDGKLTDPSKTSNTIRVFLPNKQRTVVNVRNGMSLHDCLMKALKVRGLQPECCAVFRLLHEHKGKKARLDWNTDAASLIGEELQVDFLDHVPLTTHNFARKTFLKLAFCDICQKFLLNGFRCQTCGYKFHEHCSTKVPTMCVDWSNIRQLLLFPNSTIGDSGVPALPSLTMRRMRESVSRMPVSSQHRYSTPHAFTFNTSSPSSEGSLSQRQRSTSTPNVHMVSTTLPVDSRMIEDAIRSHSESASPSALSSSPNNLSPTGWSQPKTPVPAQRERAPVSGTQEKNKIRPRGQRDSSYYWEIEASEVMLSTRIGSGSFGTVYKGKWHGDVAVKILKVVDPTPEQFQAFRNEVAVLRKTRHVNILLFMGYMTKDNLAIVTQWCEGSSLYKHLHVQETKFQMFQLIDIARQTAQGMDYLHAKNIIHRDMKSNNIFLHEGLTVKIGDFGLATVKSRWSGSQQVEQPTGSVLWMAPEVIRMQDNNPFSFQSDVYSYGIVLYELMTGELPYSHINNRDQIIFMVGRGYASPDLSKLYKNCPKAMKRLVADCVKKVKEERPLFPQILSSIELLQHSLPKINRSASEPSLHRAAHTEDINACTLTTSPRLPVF
# T2 sequence (P11362 22-822): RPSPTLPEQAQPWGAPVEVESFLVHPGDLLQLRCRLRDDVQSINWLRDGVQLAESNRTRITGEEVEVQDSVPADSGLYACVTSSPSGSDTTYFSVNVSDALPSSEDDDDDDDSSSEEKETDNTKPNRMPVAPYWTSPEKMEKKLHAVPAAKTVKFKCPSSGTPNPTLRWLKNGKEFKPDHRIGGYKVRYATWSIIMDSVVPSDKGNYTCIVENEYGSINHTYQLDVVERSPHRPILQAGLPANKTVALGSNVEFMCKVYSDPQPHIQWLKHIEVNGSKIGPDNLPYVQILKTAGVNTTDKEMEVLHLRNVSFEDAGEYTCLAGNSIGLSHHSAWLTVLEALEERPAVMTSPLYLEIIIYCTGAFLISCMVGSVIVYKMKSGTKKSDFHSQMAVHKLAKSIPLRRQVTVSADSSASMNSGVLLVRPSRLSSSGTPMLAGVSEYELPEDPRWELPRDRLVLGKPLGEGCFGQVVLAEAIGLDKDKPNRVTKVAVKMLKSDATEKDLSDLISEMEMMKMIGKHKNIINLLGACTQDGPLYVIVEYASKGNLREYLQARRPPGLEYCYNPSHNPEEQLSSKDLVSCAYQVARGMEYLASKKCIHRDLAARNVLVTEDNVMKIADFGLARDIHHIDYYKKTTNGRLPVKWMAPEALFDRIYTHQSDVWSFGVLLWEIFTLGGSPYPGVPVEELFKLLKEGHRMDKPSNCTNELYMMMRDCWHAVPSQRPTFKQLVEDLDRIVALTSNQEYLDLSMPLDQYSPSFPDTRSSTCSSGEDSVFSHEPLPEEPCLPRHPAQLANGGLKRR
# T8 sequence (Q9H3Y6 whole entry): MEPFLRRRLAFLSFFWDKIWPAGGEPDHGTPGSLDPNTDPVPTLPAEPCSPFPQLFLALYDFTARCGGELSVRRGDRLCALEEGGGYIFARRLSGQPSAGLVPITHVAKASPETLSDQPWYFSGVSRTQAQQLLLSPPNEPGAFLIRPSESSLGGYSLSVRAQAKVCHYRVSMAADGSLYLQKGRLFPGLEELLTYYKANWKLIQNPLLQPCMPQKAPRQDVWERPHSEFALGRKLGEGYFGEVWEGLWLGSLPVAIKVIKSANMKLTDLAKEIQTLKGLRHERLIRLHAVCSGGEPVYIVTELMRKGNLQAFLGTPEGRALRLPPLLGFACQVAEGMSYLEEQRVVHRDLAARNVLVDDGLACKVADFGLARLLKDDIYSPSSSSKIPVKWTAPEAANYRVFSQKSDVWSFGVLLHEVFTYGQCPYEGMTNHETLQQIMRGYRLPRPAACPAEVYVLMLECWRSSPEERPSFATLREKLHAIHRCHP
# T5 sequence (Q13523 whole entry): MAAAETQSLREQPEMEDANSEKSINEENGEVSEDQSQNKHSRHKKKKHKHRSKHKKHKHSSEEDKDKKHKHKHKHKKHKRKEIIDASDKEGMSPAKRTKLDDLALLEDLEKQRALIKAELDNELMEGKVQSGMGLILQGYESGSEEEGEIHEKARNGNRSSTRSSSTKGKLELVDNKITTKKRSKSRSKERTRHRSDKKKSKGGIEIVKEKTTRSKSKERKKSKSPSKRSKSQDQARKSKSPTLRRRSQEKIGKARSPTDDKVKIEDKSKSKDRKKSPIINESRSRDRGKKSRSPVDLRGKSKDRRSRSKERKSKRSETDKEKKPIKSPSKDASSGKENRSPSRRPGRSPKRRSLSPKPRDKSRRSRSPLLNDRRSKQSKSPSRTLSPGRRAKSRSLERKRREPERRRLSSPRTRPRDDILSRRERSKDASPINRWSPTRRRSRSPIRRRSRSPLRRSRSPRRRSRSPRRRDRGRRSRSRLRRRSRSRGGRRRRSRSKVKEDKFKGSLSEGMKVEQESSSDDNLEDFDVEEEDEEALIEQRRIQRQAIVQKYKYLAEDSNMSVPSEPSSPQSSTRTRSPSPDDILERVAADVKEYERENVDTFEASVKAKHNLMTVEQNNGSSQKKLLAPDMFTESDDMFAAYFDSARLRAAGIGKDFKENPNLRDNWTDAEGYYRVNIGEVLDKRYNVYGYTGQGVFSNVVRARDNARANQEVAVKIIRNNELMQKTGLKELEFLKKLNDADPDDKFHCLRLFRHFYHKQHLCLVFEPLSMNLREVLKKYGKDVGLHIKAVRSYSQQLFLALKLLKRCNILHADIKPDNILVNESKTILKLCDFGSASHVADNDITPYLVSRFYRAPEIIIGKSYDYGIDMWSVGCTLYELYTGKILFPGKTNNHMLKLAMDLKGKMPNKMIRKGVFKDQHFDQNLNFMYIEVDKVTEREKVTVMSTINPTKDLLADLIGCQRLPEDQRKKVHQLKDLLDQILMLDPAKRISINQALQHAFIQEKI
SMILES,remaining binding at 1 µM [1],remaining binding at 1 µM [2],remaining binding at 1 µM [3],remaining binding at 1 µM ([4]; ABL1-nonphosphorylated),remaining binding at 1 µM ([4]; ABL1-phosphorylated),remaining binding at 1 µM [5],remaining binding at 1 µM [6],remaining binding at 1 µM [7],remaining binding at 1 µM [8],remaining binding at 1 µM [9],remaining binding at 1 µM [10],remaining binding at 1 µM [11],remaining binding at 1 µM ([12]; ABL1(Q252H)-nonphosphorylated),remaining binding at 1 µM ([12]; ABL1(Q252H)-phosphorylated),remaining binding at 1 µM [13],remaining binding at 1 µM ([14]; RPS6KA5(Kin.Dom.1-N-terminal)),remaining binding at 1 µM ([14]; RPS6KA5(Kin.Dom.2-C-terminal))
"CNc1nc(Nc2ccc(S(=O)(=O)N3CCC(N4CCOCC4)CC3)cc2OC)nc2[nH]cc(Cl)c12 [Compound 12, 5-chloro-N2-(2-methoxy-4-((4-morpholinopiperidin-1-yl)sulfonyl)phenyl)-N4-methyl-7H-pyrrolo[2,3-d]pyrimidine-2,4-diamine]",79%,89%,2.7%,80%,72%,100%,100%,100%,66%,100%,100%,95%,100%,79%,97%,100%,69%
"CNc1nc(Nc2ccc(C(=O)N3CCC(N4CCOCC4)CC3)c3c2OCO3)nc2[nH]cc(Cl)c12 [Compound 75, (7-((5-chloro-4-(methylamino)-7H-pyrrolo[2,3-d]pyrimidin-2-yl)amino)benzo[d][1,3]dioxol-4-yl)(4-morpholinopiperidin-1-yl)methanone]",85%,94%,1.2%,94%,80%,100%,100%,100%,70%,100%,100%,34%,100%,57%,49%,100%,21%
"CNc1nc(Nc2ccc(P3(=O)CCN(C4CCOCC4)CC3)cc2OC)nc2[nH]cc(Cl)c12 [Compound 77, 4-(4-((5-chloro-4-(methylamino)-7H-pyrrolo[2,3-d]pyrimidin-2-yl)amino)-3-methoxyphenyl)-1-(tetrahydro-2H-pyran-4-yl)-1,4-azaphosphinane 4-oxide]",88%,100%,1.3%,92%,80%,100%,92%,100%,64%,100%,95%,85%,100%,62%,80%,94%,20%
